Assay [1] deals with IL-4 stimulated expression of CD23 in human Ramos B cells (JAK-1 and JAK-3). The assay is described as follows: Assay for Ramos B-Cell Line Stimulated with IL-4 (CD23 upregulation, FACS). The format is cell-based. Particulars: Ramos B-cell line stimulated with IL-4, CD23 expression by FACS, read-out: IC50, Example 41. The method in brief: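 Steps: Ramos B cells are suspended in RPMI with 5% serum, exposed to compound for 1 h at 37 °C, stimulated with IL-4 (final 50 units/mL) for 20-24 h, stained for CD23 and analysed by flow cytometry. IC50 is calculated.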

Assay [2] deals with up-regulation of ICAM-1 (CD54) by IFNγ in U937 human monocytic cells. The assay is described as follows: U937 IFNγ ICAM1 FACS Assay. Format: cell-based. Particulars: U937 cells stimulated with IFNγ, ICAM-1 expression by FACS, read-out: IC50, Example 44. An outline of the steps: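 Readout was the geometric-mean APC anti-ICAM-1 signal by FACS on live U937 monocytic cells, with % live cells also recorded. Cells were exposed to compounds (8 points, 3-fold dilutions, duplicates) for 30 min at 37 °C before 18–24 h of IFNγ stimulation. EC50 values were computed from the dose curve.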
On the technique in general: A flow cytometer gives signals particle by particle.

Read-outs that look alike come from different tables or passages of the source.

By IC50 is commonly meant the concentration at which inhibition is half-maximal.

As for `Cc1ccc(Nc2ncc(F)c(Nc3ccc(OCC(N)=O)cc3)n2)cc1S(N)(=O)=O` [Compound I-94, N4-(4-Aminocarbonylmethoxy)phenyl-N2-(3-aminosulfonyl-4-methyl)phenyl-5-fluoro-2,4-pyrimidinediamine], the IC50 came out at 345 nM in assay [1] and 5670 nM in assay [2].
On to `Cc1cc(Nc2nc(Nc3ccc(C)c(S(N)(=O)=O)c3)ncc2F)ccc1OCC(N)=O` [Compound I-95, N4-(4-Aminocarbonylmethoxy-3-methyl)phenyl-N2-(3-aminosulfonyl-4-methyl)phenyl-5-fluoro-2,4-pyrimidinediamine], for which the figures for the IC50 in assay [1] and in assay [2] were 118 nM and 6300 nM, respectively.
As for `CCC(=O)NS(=O)(=O)c1cccc(Nc2ncc(F)c(Nc3ccc(OCc4nc(C)no4)cc3)n2)c1` [Compound I-273], the values for the IC50 in assay [1] (sodium salt) and in assay [2] (sodium Salt) were 478 nM and 5100 nM, respectively.
Consider `CNS(=O)(=O)c1cc(Nc2ncc(F)c(Nc3ccc(Cc4ccncc4)cc3)n2)ccc1C` [III-75, 5-Fluoro-N2-[3-(N-methylaminosulfony)-4-methylphenyl]-5-fluoro-N4-[4-(4-pyridinylmethyl)phenyl]-2,4-pyrimidinediamine], for which the IC50 in assay [1] was determined as 170 nM; in assay [2] it was 1770 nM.
Turning to `CNS(=O)(=O)c1cc(Nc2ncc(F)c(NCCc3ccc(-c4ccncc4)cc3)n2)ccc1C` [III-78, 5-Fluoro-N2-[3-N-(methyl)aminosulfonyl-4-methylphenyl]-N4-[4-(4-pyridinyl)phenethyl]-2,4-pyrimidinediamine], the IC50 in assay [1] was found to be 275 nM; in assay [2], 22900 nM.
For the compound `NS(=O)(=O)c1cccc(Nc2ncc(F)c(Nc3ccc(Cn4ccnc4)cc3)n2)c1` [III-81, N2-(3-Aminosulfonylphenyl)-5-fluoro-N4-[4-(1-imidazolylmethyl)phenyl]-2,4-pyrimidinediamine], the IC50 in assay [1] is 180 nM; in assay [2] it was 3430 nM.
For `Cc1ccc(Nc2ncc(F)c(Nc3ccc(Cn4ccnc4)cc3)n2)cc1S(N)(=O)=O` [III-82, N2-(3-Aminosulfonyl-4-methylphenyl)-5-fluoro-N4-[4-(1-imidazolylmethyl)phenyl]-2,4-pyrimidinediamine], the IC50 in assay [1] stood at 127 nM; in assay [2] it was 2270 nM.
Regarding `CNS(=O)(=O)c1cc(Nc2ncc(F)c(Nc3ccc(Cn4ccnc4)cc3)n2)ccc1C` [III-83, 5-Fluoro-N2-[3-(N-methylaminosulfony)-4-methylphenyl]-5-fluoro-N4-[4-(1-imidazolylmethyl)phenyl]-2,4-pyrimidinediamine], the figures for the half-inhibitory concentration (IC50) in assay [1] and in assay [2] were 98.7 nM and 1360 nM, respectively.

These data come from patent US11827628B2, “Compositions and methods for inhibition of the JAK pathway” (Rigel Pharmaceuticals, Inc., priority 2005, dated 2023).
